US6841236B2, “Articles containing thioxanthone dyes” (3M Innovative Properties Co., priority 2001, dated 2005)

What was measured:
[1] = Daytime color of polycarbonate sheet with dye laminated to retroreflective sheeting (Labsphere BFC-450 Bispectral Colorimeter); assay type: physicochemical; details: 0.2% dye in polycarbonate FCR-2407, 0.1 mm sheet on Scotchlite 3970; CIE D65, CIE 1931 observer
Method: Examples 8-10 were prepared with the compounds of Examples 1 and 2 and 6-methoxy-14H-anthra(2,1,9-mna)thioxanthene-14-one at a 0.2% loading in polycarbonate FCR-2407. Extrusion conditions for the polycarbonate were 260-304° C. using a single screw extruder. Optically transparent pressure sensitive adhesive with a liner on both sides of the adhesive was laminated to the 0.1 mm thick sheet of polycarbonate by removing one of the liners from the adhesive and then applying the exposed adhesive to the polycarbonate sheet with two passes of a roller using hand pressure.
The remaining liner was removed from the adhesive and the polycarbonate sheet construction was laminated to retroreflective sheeting commercially available from 3M under the trade designation “Scotchlite Diamond Grade LDP Reflective Sheeting Series 3970” (Scotchlite 3970) with two passes of a roller using hand pressure. The Scotchlite 3970 reflective sheeting had previously been laminated to a 7 cm wide by 28 cm long aluminum panel (6061T6 alloy with etch and desmut surface from Q Panel Company, Cleveland, Ohio) with two passes of a roller with hand pressure.
(§1) The daytime color of each article was measured using a Labsphere BFC-450 Bispectral Colorimeter commercially available from Labsphere, North Sutton, N.H. The daytime chromaticity (x,y), total luminance factor (YT), and fluorescence luminance factor (YF; which is a measure of the fluorescent properties of the article) calculated for the CIE D65 and the CIE 1931 observer are provided in TABLE II

[2] = Daytime color of vinyl film with dye laminated to retroreflective sheeting; assay type: physicochemical; details: 0.18 g dye in 65 g GEON 178 / Elvacite 2013 mixture, 0.04 mm vinyl film on Scotchlite 3970
Method: as §1
Examples 22-23 were prepared by independently stirring 0.18 g of the dye of Examples 1 and 3 into 65 g of a mixture composed of 42 wt.-% DIBK, xylol, and mineral spirit (1.7:2.3:1), 44 wt.-% of a polyvinyl chloride dispersion commercially available from PolyOne, Cleveland, Ohio under the trade designation “GEON 178” and 14 wt.-% of a polyacrylate commercially available from Ineos Acrylics Inc., Cordova, Tenn. under the trade designation “Elvacite 2013”. Each mixture was allowed to stand at room temperature for one hour prior to knife coating onto a pre-sized paper substrate. Each coated substrate was placed in a 150° F. (66° C.) oven for 1.5 minutes, followed by a 300° F. (149° C.) oven for 1.0 minute and a 400° F. (204° C.) oven for 0.75 minute, resulting in a 0.04 mm thick fluorescent colored vinyl film.
The resultant films were laminated to Scotchlite 3970 reflective sheeting on aluminum panels as described in Examples 8-10. Color values were measured as described in Examples 8-10 and the results set out in TABLE VI.

CCCCCCCCOc1cc2c3ccccc3c(=O)c3ccc4c5ccccc5sc1c4c32 [Example 1, 6-n-Octyloxy-14H-anthra(2,1,9mna)thioxanthene-14-one]
YF (fluorescence luminance factor) [1]: 14.6
YT (total luminance factor) [1]: 32.87
x (daytime chromaticity) [1]: 0.5232
y (daytime chromaticity) [1]: 0.3132
Y (daytime chromaticity) [2]: 0.2762
YF (fluorescence luminance factor) [2]: 12.31
YT (total luminance factor) [2]: 23.82
x (daytime chromaticity) [2]: 0.5149
